This passage reports IC90 results from patent US20230203043A1, “NOVEL IMIDAZOPYRAZINE DERIVATIVES” (Hoffmann-La Roche Inc., priority 2020, published 2023).

Structures are written as SMILES. Where a name gives a salt, the structure may show the parent alone.

The first assay has as its system Acinetobacter baumannii ATCC17961. The assay can be described thus: Antimicrobial susceptibility testing: 90% growth inhibitory concentration (IC90) determination in Iso-Sensitest broth, OD600 growth. The following applies: Acinetobacter baumannii, ATCC17961, 16 h, read-out: A. baumannii ATCC 17961 IC90 (uM), strain ATCC 17961, OD600 growth over 16 h. Type of assay: cell-based. The procedure, abridged: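 Serial twofold dilution, 10 points, e.g. 50–0.097 μM final; ~5×10^(5) CFU/ml; 35±2° C, 16 h; kinetic OD600 every 20 min; IC90 from log-phase inhibition.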
For the compound `CCc1cc(Nc2nccn3c(-c4cn(CC#N)nc4C(F)(F)F)cnc23)ccc1C(=O)N[C@H](C)C(=O)N1CC[C@@H](N)C1` [Example 732, N-[(1R)-2-[(3R)-3-aminopyrrolidin-1-yl]-1-methyl-2-oxo-ethyl]-4-[[3-[1-(cyanomethyl)-3-(trifluoromethyl)pyrazol-4-yl]imidazo[1,2-a]pyrazin-8-yl]amino]-2-ethyl-benzamide formate], the IC90 (as a rule, the point of the concentration-response curve where the effect stands at 90%) was determined as 0.48 µM.

In the case of `CCc1cc(Nc2nccn3c(-c4c[nH]nc4C(F)(F)F)cnc23)ccc1C(=O)NCCNC(=O)NCCCN` [Example 569, N-(2-(3-(3-aminopropyl)ureido)ethyl)-2-ethyl-4-((3-(3-(trifluoromethyl)-1H-pyrazol-4-yl)imidazo[1,2-a]pyrazin-8-yl)amino)benzamide formate], the IC90 was 0.364 µM.

With `C[C@@H](NC(=O)c1ccc(Nc2nccn3c(-c4c[nH]nc4C(F)(F)F)cnc23)cc1Cl)C(=O)N1CC(N)C1` [Example 99, N-[(2R)-1-(3-aminoazetidin-1-yl)-1-oxopropan-2-yl]-2-chloro-4-[[3-[3-(trifluoromethyl)-1H-pyrazol-4-yl]imidazo[1,2-a]pyrazin-8-yl]amino]benzamide formate], the 90% effect concentration (IC90) was 2.08 µM.

Take `CCc1cc(Nc2nccn3c(-c4cn(CC#N)nc4C(F)(F)F)cnc23)ccc1C(=O)NCCNC(=O)CCCN` [Example 540, N-(2-(4-aminobutanamido)ethyl)-4-((3-(1-(cyanomethyl)-3-(trifluoromethyl)-1H-pyrazol-4-yl)imidazo[1,2-a]pyrazin-8-yl)amino)-2-ethylbenzamide formate]: the IC90 came out at 0.249 µM.

For `C#CCn1cc(-c2cnc3c(Nc4ccc(C(=O)NCC(=O)NCCN)c(Cl)c4)nccn23)c(C(F)(F)F)n1` [Example 116, N-[2-(2-aminoethylamino)-2-oxoethyl]-2-chloro-4-[[3-[1-prop-2-ynyl-3-(trifluoromethyl)pyrazol-4-yl]imidazo[1,2-a]pyrazin-8-yl]amino]benzamide formate], the IC90 came to 0.22 µM.

For the compound `Cc1cc(Nc2nccn3c(-c4cn(CC#N)nc4C(F)(F)F)cnc23)cc(F)c1C(=O)N1CCN(C(=O)[C@@H]2C[C@@H](O)CN2)CC1` [Example 721, 2-(4-(8-((3-fluoro-4-(4-((2S,4R)-4-hydroxypyrrolidine-2-carbonyl)piperazine-1-carbonyl)-5-methylphenyl)amino)imidazo[1,2-a]pyrazin-3-yl)-3-(trifluoromethyl)-1H-pyrazol-1-yl) acetonitrile formate], the IC90 came out at 0.452 µM.

Take `CCc1cc(Nc2nccn3c(-c4c[nH]nc4C(F)(F)F)cnc23)ccc1C(=O)NCCCNC(=O)NCCN` [Example 193, N-[3-(2-aminoethylcarbamoylamino)propyl]-2-ethyl-4-[[3-[3-(trifluoromethyl)-1H-pyrazol-4-yl]imidazo[1,2-a]pyrazin-8-yl]amino]benzamide formate]: the IC90 was 0.244 µM.

The assay is the same for the next values; noted with them: Acinetobacter baumannii, ATCC17961, 16 h, strain ATCC 17961, OD600 growth over 16 h, read-out: A. baumannii ATCC 17961 IC90.
Regarding `Cc1cc(Nc2nccn3c(-c4cn(CC5CC5)nc4C(F)(F)F)cnc23)ccc1S(C)(=O)=NCCCN` (stereo not drawn) [Example 596, N-[4-[N-(3-aminopropyl)-S-methyl-sulfonimidoyl]-3-methyl-phenyl]-3-[1-(cyclopropylmethyl)-3-(trifluoromethyl)pyrazol-4-yl]imidazo[1,2-α]pyrazin-8-amine formate], the IC90 was determined as 0.131 µM.

`CCc1cc(Nc2nccn3c(-c4cn(CC(F)F)nc4C(F)(F)F)cnc23)ccc1C(=O)NCC(=O)N1CC2CC1CN2` (centres unmarked) [Example 538, N-2-(2,5-diazabicyclo[2.2.1]heptan-2-yl)-2-oxo-ethyl]-4-[[3-[1-(2,2-difluoroethyl)-3-(trifluoromethyl)pyrazol-4-yl]imidazo[1,2-a]pyrazin-8-yl]amino]-2-ethyl-benzamide formate]: the IC90 worked out at 0.261 µM.

`CCc1cc(Nc2nccn3c(-c4cn(CC#N)nc4C(F)(F)F)cnc23)ccc1C(=O)NCCNC(=O)N1CC[C@@H](N)C1` [Example 520, (R)-3-amino-N-(2-(4-((3-(1-(cyanomethyl)-3-(trifluoromethyl)-1H-pyrazol-4-yl)imidazo [1,2-a]pyrazin-8-yl)amino)-2-ethylbenzamido)ethyl) pyrrolidine-1-carboxamide formate]: the IC90 worked out at 0.27 µM.

As to `CCCn1cc(-c2cnc3c(Nc4ccc(C(=O)NCCOCCN)c(CC)c4)nccn23)c(C(F)F)n1` [Example 346, N-[2-(2-aminoethoxy)ethyl]-4-[[3-[3-(difluoromethyl)-1-propylpyrazol-4-yl]imidazo[1,2-a]pyrazin-8-yl]amino]-2-ethylbenzamide], the IC90 came to 0.164 µM.

`CCc1cc(Nc2nccn3c(-c4cn(CC#N)nc4C(F)F)cnc23)ccc1C(=O)N1CCN(C(=O)[C@H](N)C(C)C)CC1` [Example 797, 2-(4-(8-((4-(4-(D-valyl)piperazine-1-carbonyl)-3-ethylphenyl)amino)imidazo[1,2-a]pyrazin-3-yl)-3-(difluoromethyl)-1H-pyrazol-1-yl)acetonitrile]: the IC90 is 2.36 µM.

Take `N#CCn1cc(-c2cnc3c(Nc4ccc(C(=O)NCC(=O)N5CCNCC5)c(Cl)c4)nccn23)c(C(F)(F)F)n1` [Example 501, 2-chloro-4-[[3-[1-(cyanomethyl)-3-(trifluoromethyl)pyrazol-4-yl]imidazo[1,2-a]pyrazin-8-yl]amino]-N-(2-oxo-2-piperazin-1-yl-ethyl)benzamide formate]: the IC90 was 0.224 µM.

In the case of `CCNC(=O)c1ccc(Nc2nccn3c(-c4cn(CCF)nc4C(F)(F)F)cnc23)cc1CC` [Example 114, N,2-diethyl-4-[[3-[1-(2-fluoroethyl)-3-(trifluoromethyl)pyrazol-4-yl]imidazo[1,2-a]pyrazin-8-yl]amino]benzamide], the IC90 stood at 0.329 µM.

Turning to `Cc1cc(Nc2nccn3c(-c4cn(CC#N)nc4C(F)(F)F)cnc23)cc(F)c1C(=O)N[C@H](C)CNC(=O)[C@H]1[C@@H]2CNC[C@@H]21` [Example 720, (1R,5S,6r)-N-((R)-2-(4-((3-(1-(cyanomethyl)-3-(trifluoromethyl)-1H-pyrazol-4-yl)imidazo[1,2-a]pyrazin-8-yl)amino)-2-fluoro-6-methylbenzamido)propyl)-3-azabicyclo[3.1.0] hexane-6-carboxamide formate], the IC90 came to 0.441 µM.

Regarding `N#CCn1cc(-c2cnc3c(Nc4ccc(C(=O)N5CCN(C(=O)N[C@H]6C[C@@H](N)C6)CC5)c(Cl)c4)nccn23)c(C(F)(F)F)n1` [Example 584, N-((1s,3s)-3-aminocyclobutyl)-4-(2-chloro-4-((3-(1-(cyanomethyl)-3-(trifluoromethyl)-1H-pyrazol-4-yl)imidazo[1,2-a]pyrazin-8-yl)amino)benzoyl) piperazine-1-carboxamide formate], the IC90 was determined as 0.257 µM.

Take `N#CCn1cc(-c2cnc3c(Nc4ccc(C(=O)N5CCC(NC(=O)N[C@H]6CCNC6)CC5)c(Cl)c4)nccn23)c(C(F)(F)F)n1` [Example 11, 1-[1-[2-chloro-4-[[3-[1-(cyanomethyl)-3-(trifluoromethyl)pyrazol-4-yl]imidazo[1,2-a]pyrazin-8-yl]amino]benzoyl]piperidin-4-yl]-3-[(3S)-pyrrolidin-3-yl]urea]: the IC90 is 0.204 µM.

With `O=C(c1ccc(Nc2nccn3c(-c4cn(C(F)F)nc4C(F)(F)F)cnc23)cc1Cl)N1CC2(C1)CN(C(=O)[C@@H]1CCCN1)C2` [Example 763, (S)-(2-chloro-4-((3-(1-(difluoromethyl)-3-(trifluoromethyl)-1H-pyrazol-4-yl)imidazo[1,2-a]pyrazin-8-yl)amino)phenyl)(6-prolyl-2,6-diazaspiro[3.3]heptan-2-yl)methanone], the concentration for an effect of 90% (IC90) came to 0.75 µM.

As for `NCC(=O)N1CCN(C(=O)c2ccc(Nc3nccn4c(-c5cn(CC(F)F)nc5C(F)(F)F)cnc34)cc2Cl)CC1` [Example 6, 2-amino-1-[4-[2-chloro-4-[[3-[1-(2,2-difluoroethyl)-3-(trifluoromethyl)pyrazol-4-yl]imidazo[1,2-a]pyrazin-8-yl]amino]benzoyl]piperazin-1-yl]ethanone], the IC90 amounted to 0.159 µM.

With `N#CCn1cc(-c2cnc3c(Nc4ccc(C(=O)N5CCN(C(=O)[C@H]6CCCN6)CC5)c(Cl)c4)nccn23)c(C(F)(F)F)n1` [Example 186, 2-[4-[8-[3-chloro-4-[4-[(2R)-pyrrolidine-2-carbonyl]piperazine-1-carbonyl]anilino]imidazo[1,2-a]pyrazin-3-yl]-3-(trifluoromethyl)pyrazol-1-yl]acetonitrile], the IC90 amounted to 0.206 µM.

For `CCc1cc(Nc2nccn3c(-c4cn(CC(F)F)nc4C(F)(F)F)cnc23)ccc1C(=O)NCC(=O)N[C@H]1CCNC1` [Example 638, 4-[[3-[1-(2,2-difluoroethyl)-3-(trifluoromethyl)pyrazol-4-yl]imidazo[1,2-a]pyrazin-8-yl]amino]-2-ethyl-N-[2-oxo-2-[[(3S)-pyrrolidin-3-yl]amino]ethyl] benzamide formate], the IC90 was 0.226 µM.

Still in this assay, the particulars now being: strain ATCC 17961, OD600 growth over 16 h, read-out: A. baumannii ATCC 17961 IC90.
`O=C(NC1CCN(C(=O)c2ccc(Nc3nccn4c(-c5c[nH]nc5C(F)(F)F)cnc34)cc2Cl)CC1)N[C@H]1CCNC1` [Example 144, 1-[1-[2-choro-4-[[3-[3-(trifluoromethyl)-1H-pyrazol-4-yl]imidazo[1,2-a]pyrazin-8-yl]amino]benzoyl]piperidin-4-yl]-3-[(3S)-pyrrolidin-3-yl]urea]: the IC90 worked out at 0.335 µM.

For the compound `C#CCNCCCNC(=O)c1c(C)cc(Nc2nccn3c(-c4cn(CCF)nc4C(F)(F)F)cnc23)cc1F` [Example 74, 2-fluoro-4-[[3-[1-(2-fluoroethyl)-3-(trifluoromethyl)pyrazol-4-yl]imidazo[1,2-a]pyrazin-8-yl]amino]-6-methyl-N-[3-(prop-2-ynylamino)propyl] benzamide], the IC90 stood at 0.781 µM.
